Values belong to the molecule of their own block, whether it stands above or below them.
Key:
UGT2B15 = UGT2B15 (Homo sapiens, UniProt P54855); assay: Substrate glucuronidation by recombinant UGT2B15; conditions: UGT2B15 Supersomes 250 μg/ml; 7-HFC 50 μM
UGT1A9 [1] = target: T1, UGT1A9 (Homo sapiens, UniProt O60656); assay: Substrate glucuronidation by recombinant UGT1A9
T1 sequence (O60656 26-530): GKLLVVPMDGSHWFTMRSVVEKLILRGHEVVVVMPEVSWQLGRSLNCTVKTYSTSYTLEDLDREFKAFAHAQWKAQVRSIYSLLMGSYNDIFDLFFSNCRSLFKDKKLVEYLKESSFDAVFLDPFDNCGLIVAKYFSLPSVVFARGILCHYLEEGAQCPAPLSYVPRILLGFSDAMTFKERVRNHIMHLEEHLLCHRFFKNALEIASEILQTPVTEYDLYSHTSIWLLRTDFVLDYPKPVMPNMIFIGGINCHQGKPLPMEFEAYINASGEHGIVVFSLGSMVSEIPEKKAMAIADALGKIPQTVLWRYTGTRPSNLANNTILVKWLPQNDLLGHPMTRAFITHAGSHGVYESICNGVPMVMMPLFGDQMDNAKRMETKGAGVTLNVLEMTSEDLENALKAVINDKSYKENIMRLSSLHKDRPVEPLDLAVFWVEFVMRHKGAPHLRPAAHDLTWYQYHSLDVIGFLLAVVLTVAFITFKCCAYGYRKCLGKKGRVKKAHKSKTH

UGT1A8 [2] = target: T2, UGT1A8 (Homo sapiens, UniProt Q9HAW9); assay: Substrate glucuronidation by recombinant UGT1A8; conditions: UGT1A8 Supersomes 250 μg/ml; 7-HFC 50 μM
T2 sequence (Q9HAW9 26-530): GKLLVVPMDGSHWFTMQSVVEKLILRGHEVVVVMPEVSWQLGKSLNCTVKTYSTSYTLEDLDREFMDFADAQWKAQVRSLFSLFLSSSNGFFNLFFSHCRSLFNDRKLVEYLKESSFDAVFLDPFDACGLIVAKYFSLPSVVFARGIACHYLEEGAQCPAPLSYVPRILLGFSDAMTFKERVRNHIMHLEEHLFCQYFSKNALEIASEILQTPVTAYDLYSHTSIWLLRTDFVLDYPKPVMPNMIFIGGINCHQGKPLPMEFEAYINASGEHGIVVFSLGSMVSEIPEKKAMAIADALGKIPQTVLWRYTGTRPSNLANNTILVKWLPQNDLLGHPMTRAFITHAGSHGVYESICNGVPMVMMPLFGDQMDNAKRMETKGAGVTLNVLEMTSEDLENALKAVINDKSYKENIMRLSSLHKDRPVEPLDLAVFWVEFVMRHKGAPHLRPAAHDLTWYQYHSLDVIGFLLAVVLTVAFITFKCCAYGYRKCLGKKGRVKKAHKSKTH

UGT2B7 = target: T3, UGT2B7 (Homo sapiens, UniProt P16662); assay: Substrate glucuronidation by recombinant UGT2B7; conditions: for 7-HFC glucuronidation rate: 7-HFC 50 μM
T3 sequence (P16662 24-529): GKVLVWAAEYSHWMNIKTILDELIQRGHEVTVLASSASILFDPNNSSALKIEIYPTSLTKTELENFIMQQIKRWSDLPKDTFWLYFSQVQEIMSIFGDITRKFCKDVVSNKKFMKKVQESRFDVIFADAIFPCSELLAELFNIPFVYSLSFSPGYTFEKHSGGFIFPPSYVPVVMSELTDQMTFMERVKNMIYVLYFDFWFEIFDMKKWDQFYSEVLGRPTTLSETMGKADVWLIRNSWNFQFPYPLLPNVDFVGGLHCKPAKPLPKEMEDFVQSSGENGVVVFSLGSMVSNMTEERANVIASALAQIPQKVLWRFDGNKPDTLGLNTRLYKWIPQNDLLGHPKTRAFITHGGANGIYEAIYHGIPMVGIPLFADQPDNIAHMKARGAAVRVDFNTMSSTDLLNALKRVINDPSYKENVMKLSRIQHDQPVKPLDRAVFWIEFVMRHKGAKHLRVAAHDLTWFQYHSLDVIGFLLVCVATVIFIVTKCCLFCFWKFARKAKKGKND

[3] = tested on: UGT enzymes of human liver microsomes; assay: Inhibition of zidovudine glucuronidation in human liver microsomes; type: biochemical
Procedure: Compounds were eluted using a binary solvent gradient system where solvent A was dilute phosphoric acid (pH 3) and solvent B was acetonitrile.
Standardized incubations utilized 500 μM zidovudine substrate, 1 mg/ml microsomal protein, 5 mM UDPGA and a 30 min incubation time. […] Int.

UGT1A8 [4] = target: T2, UGT1A8
UGT1A9 [5] = target: T1, UGT1A9; conditions: 30 min, 100 μM, pH 7.5
UGT1A10 = target: T4, UGT1A10 (Homo sapiens, UniProt Q9HAW8)
T4 sequence (Q9HAW8 26-530): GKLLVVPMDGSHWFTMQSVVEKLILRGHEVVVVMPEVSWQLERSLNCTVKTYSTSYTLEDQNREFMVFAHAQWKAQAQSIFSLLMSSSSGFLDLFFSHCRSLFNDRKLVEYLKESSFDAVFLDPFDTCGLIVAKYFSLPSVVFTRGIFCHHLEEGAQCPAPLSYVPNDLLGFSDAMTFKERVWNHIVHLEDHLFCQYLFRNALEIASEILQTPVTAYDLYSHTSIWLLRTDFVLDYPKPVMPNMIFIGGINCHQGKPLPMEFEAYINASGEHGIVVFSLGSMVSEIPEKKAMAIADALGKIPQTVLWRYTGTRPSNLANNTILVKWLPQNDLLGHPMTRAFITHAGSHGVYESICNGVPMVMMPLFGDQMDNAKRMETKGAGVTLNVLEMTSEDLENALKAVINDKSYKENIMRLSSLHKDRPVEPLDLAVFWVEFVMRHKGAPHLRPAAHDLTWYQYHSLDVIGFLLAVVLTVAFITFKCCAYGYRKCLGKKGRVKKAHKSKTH

Sequence of UGT2B15 (P54855 24-530): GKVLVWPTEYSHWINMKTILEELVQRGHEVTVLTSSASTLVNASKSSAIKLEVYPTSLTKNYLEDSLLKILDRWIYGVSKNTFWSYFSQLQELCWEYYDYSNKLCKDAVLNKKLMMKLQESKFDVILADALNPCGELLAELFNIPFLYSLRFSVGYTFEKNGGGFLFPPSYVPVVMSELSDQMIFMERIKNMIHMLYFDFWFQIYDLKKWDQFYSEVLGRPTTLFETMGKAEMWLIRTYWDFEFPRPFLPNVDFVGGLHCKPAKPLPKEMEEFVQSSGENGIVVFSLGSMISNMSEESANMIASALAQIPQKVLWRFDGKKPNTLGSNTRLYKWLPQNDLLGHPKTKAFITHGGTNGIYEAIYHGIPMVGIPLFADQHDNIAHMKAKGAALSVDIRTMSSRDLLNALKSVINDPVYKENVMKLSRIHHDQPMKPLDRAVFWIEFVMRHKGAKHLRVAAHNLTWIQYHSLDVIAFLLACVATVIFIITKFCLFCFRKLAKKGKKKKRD

- 7-HFC glucuronidation rate (UGT2B15): 976 ± 17 pmol/min/mg protein
- 7-HFC glucuronidation rate as % of the rate for UGT1A6 (UGT1A9 [1]; UGT1A9): 81%
- 7-HFC glucuronidation rate (UGT1A9 [1]; UGT1A9 Supersomes 250 μg/ml, 7-HFC 50 μM): 3976 ± 41 pmol/min/mg protein
- 7-HFC glucuronidation rate (UGT1A8 [2]): 486 ± 5 pmol/min/mg protein
- 7-HFC glucuronidation rate in Panvera Bacculosomes as % of Gentest Supersomes (UGT2B7; UGT2B7): 22%
- 7-HFC glucuronidation rate (UGT2B7; UGT2B7 Bacculosomes 250 μg/ml): 212 ± 13 pmol/min/mg protein
- 7-HFC glucuronidation rate (UGT2B7; UGT2B7 Supersomes 250 μg/ml): 972 ± 72 pmol/min/mg protein
SMILES: O=c1cc(C(F)(F)F)c2ccc(O)cc2o1 [7-HFC, 7-hydroxy-4-(trifluoromethyl)coumarin]

SMILES: O=c1c(O)c(-c2ccc(O)c(O)c2)oc2cc(O)cc(O)c12 [Quercetin]
- inhibition of zidovudine metabolism, in words [3]: ineffective

- labetalol metabolism, in words (UGT1A8 [4]): No detectable metabolism was observed
- LG1/LG2 (UGT1A9 [5]): 0.8
- labetalol metabolite LG1, peak area normalized to internal standard (UGT1A9 [5]): 38 (1)
- labetalol metabolite LG2, peak area normalized to internal standard (UGT1A9 [5]): 49 (1)
- labetalol metabolism, in words (UGT1A10): No detectable metabolism was observed
SMILES: CC(CCc1ccccc1)NCC(O)c1ccc(O)c(C(N)=O)c1 (stereo not shown) [Labetalol, labetalol]

Source: patent publication US20030215462A1, “Use of UGT inhibitors to increase bioavailability” (priority 2001, published 2003)
